How the values were obtained:
[1] = system: female NZB/WF1 SLE mice; assay: Titers of anti-dsDNA antinuclear antibodies in plasma of female NZB/WF1 SLE mice (Mouse Anti-dsDNA IgG ELISA kit); type: in vivo
Experimental: (§1) Female NZB/WF1 mice spontaneously develop human SLE-like syndromes, such as generation of antinuclear autoantibodies, proteinuria, and renal toxicity to cause death. The disease is more severe in female mice than in male mice; the morbidity of female mice is also higher than that of male mice. Therefore, female NZB/WF1 mice were used for screening anti-SLE drugs in this study.
(§2) Thirty female NZB/WF1 mice (purchased from Jackson Lab, USA) between 12-24 weeks of age were analyzed biweekly to determine proteinuria levels, monthly to assess the titers of antinuclear autoantibody (ANA). The increased titers of ANA and positive response implicated that female NZB/WF1 mice were going to develop SLE and were ready for grouping. At 22 weeks of age, the animals showing the abovementioned syndromes were randomly divided into 3 groups (10 mice per group, water was administered to negative control group, steroid was given to positive control group, and cyclohexenone compounds of Antrodia camphorata was administered to experiment group), and the start time for the experiment was set as week zero. In addition, ten B6 mice (purchased from National Laboratory Animal Center, Taiwan) without SLE syndrome were normal mice served as blank group.
(§3) The blank group in Table 1 was B6 mice of no SLE syndrome, which received no treatment and normal diet for natural growth. NZB/WF1 female mice that were able to express SLE syndromes were served in negative control and positive control groups. Mice in the former group received normal water; in the latter were orally medicated with 1.25 mg/kg of prednisolone, the SLE drug. Mice in the experiment group were orally medicated with 50 mg/kg of cyclohexenone compounds from Example 1. The mice were fed with the abovementioned substances once per day starting at 23 weeks of age, and this period of time was referred to as the first week of this experiment. […]
The titers of dsDNA antinuclear antibodies were determined in this study to assess the effects of cyclohexenone compounds from Antrodia camphorata on SLE mice. […]

[2] = system: female NZB/WF1 SLE mice; assay: Changes of proteinuria in female NZB/WF1 SLE mice (Bio-Rad protein assay of urine); type: in vivo; conditions: for proteinuria level: negative control 246 mg/dl
Experimental: as §1, §2
as §3, with “1.” for “1. The mice were fed with the abovementioned substances once per day starting at 23 weeks of age, and this period of time was referred to as the first week of this experiment.”
SLE patients develop renal inflammation and damage, which cause leakage of protein from kidney into the fluid. […] Ten μl of urine was assayed with Bio-Rad Protein Assay Dye Reagent Concentrate (Bio-Rad Laboratories, USA) and read under […] with an ELISA analyzer to determine the protein concentration with a standard curve.

Compound | titer of anti-dsDNA antinuclear antibodies decreased to ([1]; positive group, prednisolone 1.25 mg/kg oral once per day, week 8) | proteinuria level ([2]; positive control group, prednisolone 1.25 mg/kg oral once per day, after 6 weeks) [mg/dL] | titers of anti-dsDNA antinuclear antibodies compared with negative group ([1]; experiment group, 50 mg/kg oral once per day, during 8 weeks of experiment) | titer of antinuclear antibodies decreased to ([1]; experiment group, 50 mg/kg oral once per day, week 8) [%] | proteinuria level ([2]; experiment group, 50 mg/kg oral once per day, after 6 weeks of experiment) [mg/dL] | fold increase of proteinuria level versus before experiment ([2]; experiment group, 50 mg/kg oral once per day, after 6 weeks, negative control 2.76-fold) [fold]
C[C@]12C=CC(=O)C=C1CC[C@@H]1[C@@H]2[C@@H](O)C[C@@]2(C)[C@H]1CC[C@]2(O)C(=O)CO [prednisolone, reference compound] | around 50% | 32.6 | – | – | – | –
COC1=C(OC)C(O)C(C/C=C(\C)CC/C=C(\C)CCC=C(C)C)C(C)C1=O (stereo not drawn) [4-hydroxy-2,3-dimethoxy-6-methyl-5(3,7,11-trimethyl-dodeca-2,6,10-trienyl)-cyclohex-2-enone] | – | – | significantly lower titers of anti-dsDNA antinuclear antibodies than those in the negative group | 34 | 118.2 | 1.3

— patent US7501454B2, “Cyclohexenone compounds from Antrodia camphorata to treat autoimmune diseases” (Golden Biotechnology Corporation, priority 2007, dated 2009)
